The test system of one assay is CAPAN-1. The assay is described as follows: Antiproliferative activity against BRCA2-deficient human Capan1 cells after 48 hrs by MTT assay. Type of assay: functional, cell-based. As to conditions: CAPAN-1, 48 h. On the technique in general: Tetrazolium assays rely on reduction of a dye to a coloured formazan, in cell work by metabolically active cells.
Assay [1] relates to HCC1937. The assay is described as follows: Antiproliferative activity against BRCA1-deficient human HCC1937 cells after 48 hrs by MTT assay. As to conditions: HCC1937, 48 h. Format: functional, cell-based.
Another assay deals with MX1. The assay can be described thus: Antiproliferative activity against BRCA1-deficient human MX1 cells after 48 hrs by MTT assay. Type of assay: functional, cell-based. The following applies: MX1, 48 h.
The test system of another assay is SK-BR-3. The assay is described as follows: Antiproliferative activity against BRCA-proficient human SKBR3 cells after 48 hrs by MTT assay. Format: functional, cell-based. As to conditions: SK-BR-3, 48 h.
Assay [2] deals with MCF7. The assay is described as follows: Antiproliferative activity against BRCA-proficient human MCF7 cells after 48 hrs by MTT assay. Type of assay: functional, cell-based. As to conditions: MCF7, 48 h.
The test system of a further assay is MDA-MB-231. The assay is described as follows: Antiproliferative activity against BRCA-proficient human MDA-MB-231 cells after 48 hrs by MTT assay. Format: functional, cell-based. As to conditions: MDA-MB-231, 48 h.
In assay [3] the target is T1, Heat shock protein HSP90 (Homo sapiens, UniProt P07900+P08238).
Description: Binding affinity to HSP90 (unknown origin) assessed as quenching constant by Stern-Volmer plot analysis
The target in assay [4] is T1, Heat shock protein HSP90. The assay is described as follows: Binding affinity to HSP90 (unknown origin) by fluorescence quenching method. Format: protein assay.
In assay [5] the test system is HCC1937. The assay is described as follows: Potency index, ratio of compound IC50 to Olaparib IC50 for antiproliferative activity against human HCC1937 cells. Format: functional.
The target in assay [6] is T1, Heat shock protein HSP90. This is another data set of the same source.
Description: Binding affinity to HSP90 (unknown origin) by Line weaver-Burk plot analysis
Assay [7] has as its system MCF7. The assay is described as follows: Inhibition of PARP in human MCF7 cells assessed as down regulation of PAR at 1 to 100 uM in presence of adriamycin by western blotting analysis. Format: cell-based. On the technique in general: A western blot detects proteins with antibodies after separation by electrophoresis.
Assay [8] concerns the target T1, Heat shock protein HSP90. This is another data set of the same source.
Description: Binding affinity to HSP90 (unknown origin) assessed as Stern-Volmer quenching constant by Stern-Volmer plot analysis
The subject of assay [9] is MCF7. The assay can be described thus: Potency index, ratio of compound IC50 to Olaparib IC50 for antiproliferative activity against human MCF7 cells. Type of assay: functional.
Assay [10] addresses T1, Heat shock protein HSP90. The assay is described as follows: Inhibition of HSP90 (unknown origin) by fluorescence quenching method. Format: protein assay.
Assay [11] addresses T1, Heat shock protein HSP90. The assay can be described thus: Inhibition of HSP90 in human MDA-MB-231 cells assessed as down regulation of BRCA1 protein expression at 1 to 100 uM in presence of adriamycin by western blotting analysis. Type of assay: cell-based.

Activity calls are given as the source filed them. The calls are words filed in the database; no cut-off is given here.

A word on the IC50: it is the point on the concentration scale where inhibition reaches its midpoint. Lower therefore signals higher potency. Regarding `O=C1/C(=C/c2ccc(F)cc2)CN(C(=O)c2cc(Cc3n[nH]c(=O)c4ccccc34)ccc2F)C/C1=C\c1ccc(F)cc1`, the IC50 was > 200 µM in the assay on CAPAN-1; 36.1 µM with HCC1937 [1]; > 200 µM in the assay on MX1; > 200 µM in the assay on SK-BR-3; 173 µM in the assay with MCF7 [2]; > 200 µM in the assay on MDA-MB-231.
On to `COc1cc(/C=C2\CN(C(=O)c3cc(Cc4n[nH]c(=O)c5ccccc45)ccc3F)C/C(=C\c3cc(OC)c(OC)c(OC)c3)C2=O)cc(OC)c1OC`, for which the IC50 is 118 µM in the assay on CAPAN-1; 65.3 µM in the assay with HCC1937 [1]; 34.6 µM in the assay on MX1; > 200 µM with SK-BR-3; > 200 µM with MCF7 [2]; > 200 µM in the assay on MDA-MB-231.
With `O=C1/C(=C/c2ccc(Cl)cc2)CN(C(=O)c2cc(Cc3n[nH]c(=O)c4ccccc34)ccc2F)C/C1=C\c1ccc(Cl)cc1`, the IC50 in the assay on CAPAN-1 is 1.78 µM; with HCC1937 [1] it was 3.84 µM; in the assay on MX1, 4.23 µM; in the assay with SK-BR-3 it was > 200 µM; with MCF7 [2], 1.21 µM; in the assay on MDA-MB-231 it was 8 µM.
`O=C1/C(=C/c2cccc(F)c2)CN(C(=O)c2cc(Cc3n[nH]c(=O)c4ccccc34)ccc2F)C/C1=C\c1cccc(F)c1`: the IC50 with CAPAN-1 was 1.68 µM; in the assay with HCC1937 [1], 10.6 µM; in the assay with MX1 it was 2.39 µM; with SK-BR-3, > 200 µM; in the assay with MCF7 [2] it was 1.46 µM; in the assay with MDA-MB-231, 5.17 µM.
For `O=C1/C(=C/c2ccccc2F)CN(C(=O)c2cc(Cc3n[nH]c(=O)c4ccccc34)ccc2F)C/C1=C\c1ccccc1F`, the IC50 with CAPAN-1 is 2.02 µM; in the assay on HCC1937 [1] it was 16.1 µM; with MX1, 3.62 µM; in the assay on SK-BR-3 it was > 200 µM; with MCF7 [2], 2.05 µM; with MDA-MB-231, 7.63 µM.
As for `O=C1CCN(C(=O)c2cc(Cc3n[nH]c(=O)c4ccccc34)ccc2F)CC1`, the half-maximal inhibitory concentration (IC50) in the assay on CAPAN-1, with HCC1937 [1], in the assay on MX1, in the assay with SK-BR-3, in the assay with MCF7 [2] and in the assay on MDA-MB-231 was > 200 µM in each case.
For the compound `O=C1/C(=C/c2ccc3c(c2)OCO3)CN(C(=O)c2cc(Cc3n[nH]c(=O)c4ccccc34)ccc2F)C/C1=C\c1ccc2c(c1)OCO2`, the concentration for half-maximal inhibition (IC50) in the assay with CAPAN-1 was 32 µM; in the assay with HCC1937 [1] it was 44.7 µM; with MX1 it was 13.9 µM; in the assay on SK-BR-3, > 200 µM; in the assay on MCF7 [2] it was 25.8 µM; in the assay on MDA-MB-231, 21.1 µM.
For the compound `O=C(c1cc(Cc2n[nH]c(=O)c3ccccc23)ccc1F)N1CCN(C(=O)C2CC2)CC1` [OLAPARIB], the IC50 in the assay with CAPAN-1 was 83.1 µM; in the assay with HCC1937 [1] it was > 200 µM; in the assay with MX1 it was 35.8 µM; with SK-BR-3, 232 µM; in the assay on MCF7 [2], > 200 µM; in the assay on MDA-MB-231 it was > 200 µM.
In the case of `O=C1/C(=C/c2ccccc2O)CN(C(=O)c2cc(Cc3n[nH]c(=O)c4ccccc34)ccc2F)C/C1=C\c1ccccc1O`, the IC50 in the assay with CAPAN-1 was > 200 µM; in the assay on HCC1937 [1], > 200 µM; in the assay on MX1, 29.2 µM; in the assay on SK-BR-3, > 200 µM; with MCF7 [2] it was > 200 µM; in the assay on MDA-MB-231 it was > 200 µM.
What is called Kd is the concentration at which binding is half-saturated. Higher therefore signals a looser complex. For `O=C1/C(=C/c2cccnc2)CN(C(=O)c2cc(Cc3n[nH]c(=O)c4ccccc34)ccc2F)C/C1=C\c1cccnc1`, the IC50 in the assay on CAPAN-1 is 82.8 µM; in the assay with HCC1937 [1] it was 5.3 µM; in the assay on MX1 it was 2 µM; in the assay with SK-BR-3, 15.9 µM; in the assay with MCF7 [2], > 200 µM; in the assay with MDA-MB-231, 7.6 µM. This compound registered a Kq at Heat shock protein HSP90 [3] of 4.43 ×10¹² L/mol/s. In addition, on Heat shock protein HSP90 [4], the Kd was 28.257 µM. For the same compound, the “Ratio IC50” value in the assay on HCC1937 [5] amounted to 40. In addition, at Heat shock protein HSP90 [6], the Ka was 4.89 ×10⁵ L/mol. The inhibition entry with MCF7 [7] is “Active”. At Heat shock protein HSP90 [8], this compound displayed a KSV of 3.58 ×10⁴ L/mol.
As to `O=C1/C(=C/c2ccccn2)CN(C(=O)c2cc(Cc3n[nH]c(=O)c4ccccc34)ccc2F)C/C1=C\c1ccccn1`, the 50% inhibitory concentration (IC50) in the assay with CAPAN-1 stood at 37.3 µM; with HCC1937 [1], 2.88 µM; with MX1 it was 0.1 µM; in the assay on SK-BR-3 it was 2.83 µM; in the assay on MCF7 [2] it was 1.47 µM; in the assay with MDA-MB-231, 0.75 µM. Further, on Heat shock protein HSP90 [3], the Kq was 4.32 ×10¹² L/mol/s. For the same compound, the Kd at Heat shock protein HSP90 [4] is 29.569 µM. Moreover, the “Ratio IC50” value with MCF7 [9] was determined as 200. The same compound gave a Ka on Heat shock protein HSP90 [6] of 4.88 ×10⁵ L/mol. Besides, the inhibition result with MCF7 [7] is “Active”. This compound also returned a KSV on Heat shock protein HSP90 [8] of 3.48 ×10⁴ L/mol.
Consider `O=C1/C(=C/c2ccncc2)CN(C(=O)c2cc(Cc3n[nH]c(=O)c4ccccc34)ccc2F)C/C1=C\c1ccncc1`, for which the IC50 was found to be 0.202 µM in the assay on CAPAN-1; 2.72 µM in the assay on HCC1937 [1]; 0.1 µM in the assay with MX1; 2.53 µM in the assay on SK-BR-3; 0.97 µM at Heat shock protein HSP90 [10]; 0.97 µM in the assay with MCF7 [2]. In the assay on MDA-MB-231, the IC50 worked out at 4.38 µM. For the same compound, on Heat shock protein HSP90 [4], the Kd is 39.975 µM. The “Ratio IC50” value with MCF7 [9] is on record as 200. Besides, the inhibition entry in the assay with MCF7 [7] and at Heat shock protein HSP90 [11] was “Active” in each case.

Source of the values: ChEMBL document CHEMBL4627353, “Synthesis of novel dual target inhibitors of PARP and HSP90 and their antitumor activities” (Bioorg Med Chem, 2020).
